Like-named read-outs stand apart in the source and are kept apart here.
What was measured:
MNV (MNV-1.CW3) [1] = experiment: MNV assay: MNV RNA levels by RT-qPCR in RAW 264.7 cells; assay type: cell-based, murine norovirus; conditions: for EC50 / EC90: Norwalk virus; for EC50: RAW264.7, read-out: EC50, concentration required to reduce MNV RNA copy number by 50%; for SI (CC50/EC50), MNV / Antiviral activity against MNV (RNA levels), in words: RAW 264.7 cells; for Antiviral activity against MNV (RNA levels), in words: 0.1-100 μM (RBV 10-200 μM)
Cytotoxicity assays [2] = assay type: cell-based; conditions: mouse, RAW 264.7 cells
[3] = cited from earlier work
Cytotoxicity assays [4] = assay type: cell-based; conditions: human, HG23 and Huh-7 cells
NV replicon (HG23 cells) = experiment: Norwalk virus replicon assay: NV RNA by RT-qPCR in HG23 cells; assay type: cell-based; conditions: for Effect on NV RNA levels in HG23 cells, in words: 24-96 h post-treatment; for SI / therapeutic index (CC50/EC50), NV replicon: HG23 cells; for EC90: HG23, read-out: EC90, concentration required to reduce NV RNA copy number in HG23 cells by 90%; for Reduction in NV RNA: 10 μM
[5] = test system: NPT II expression in HG23 cells; experiment: Western blot of NPT II expression in HG23 cells; assay type: cell-based, Norwalk virus; conditions: for NPT II expression, % of untreated cells: 72 h incubation; for IC50: Norwalk virus, HG23, read-out: IC50, concentration required to reduce NPT II expression in HG23 cells by 50%
[6] = test system: bovine viral diarrhoea virus (BVDV); conditions: cited from earlier work
HCV = conditions: cited from earlier work
MNV (MNV-1.CW3) [7] = experiment: MNV assay: MNV infectivity by TCID50 in RAW 264.7 cells; assay type: cell-based, murine norovirus; conditions: for Effect on MNV titre (infectivity), in words: RAW 264.7 cells, TCID50
HCV infections = conditions: reportedly; Phase II, treatment of HCV; cited from earlier work
[8] = Norwalk virus, HG23, read-out: EC50, concentration required to reduce NV RNA copy number in HG23 cells by 50%, RT-qPCR
[9] = read-out: EC50, concentration required to reduce NV RNA copy number in HG23 cells by 50%, RT-qPCR
[10] = RAW264.7, read-out: EC90, concentration required to reduce MNV RNA copy number by 90%

SMILES | EC50 (MNV (MNV-1.CW3) [1]) | SI (CC50/EC50), MNV (MNV (MNV-1.CW3) [1]) | Antiviral activity against MNV (RNA levels), in words (MNV (MNV-1.CW3) [1]) | CC50 at 5 days (Cytotoxicity assays [2]) | CC50 at 5 days (Cytotoxicity assays [4]) | Effect on NV RNA levels in HG23 cells, in words (NV replicon (HG23 cells)) | SI / therapeutic index (CC50/EC50), NV replicon (NV replicon (HG23 cells)) | EC50 (NV replicon (HG23 cells); [8]) | EC90 (NV replicon (HG23 cells); Norwalk virus) | Effect on MNV titre (infectivity), in words (MNV (MNV-1.CW3) [7]) | EC90 (MNV (MNV-1.CW3) [1]; [10]) | further results
O=c1nc(NO)ccn1[C@@H]1O[C@H](CO)[C@@H](O)[C@H]1O [NHC, 1-((2R, 3R, 4S, 5R)-3,4-dihydroxy-5-(hydroxymethyl)tetrahydrofuran-2-yl)-4-(hydroxyamino) pyrimidin-2(1H)-one] | 8.8 ± 4.2 µM | >11.4 | Neither 3TC nor NHC had antiviral activity against MNV | > 100 µM | > 100 µM | dose- and time-dependent reduction of NV RNA levels | > 68.0 | 1500 nM | 16.6 ± 2.1 µM | No reduction of MNV titre was observed | – | Mutagenic properties [3]: has mutagenic properties; EC50 (NV replicon (HG23 cells); [9]): 1470 ± 1100 nM; NPT II expression, % of untreated cells ([5]; 1 μM): 91%; NPT II expression, % of untreated cells ([5]; 10 μM): 40%; NPT II expression, % of untreated cells ([5]; 100 μM): 16%; IC50 [5]: 6 ± 1.7 µM; Activity against BVDV, in words [6]: active against HCV, BVDV; Activity against HCV, in words (HCV): active against HCV, BVDV
CC(C)C(=O)OC[C@H]1O[C@@H](n2ccc(N)nc2=O)[C@](C)(F)[C@@H]1OC(=O)C(C)C [RG-7128] | – | – | – | – | – | – | – | – | – | – | – | Clinical outcome in HCV trials, in words (HCV infections): demonstrated safety and efficacy against HCV
NC(=O)c1ncn([C@@H]2O[C@H](CO)[C@@H](O)[C@H]2O)n1 [RBV, ribavirin, reference compound] | 63.5 ± 2.3 µM | >1.6 | reduced MNV RNA levels in a dose-dependent manner at 12 h and 24 h post-treatment | > 100 µM | > 200 µM | – | >5.0 | 40000 ± 2300 nM | 96.3 ± 2.5 µM | – | 105 ± 1.5 µM | –
Nc1ccn([C@@H]2CS[C@H](CO)O2)c(=O)n1 [3TC, 4-amino-1-((2R, 5S)-2-(hydroxymethyl)-1,3-oxathiolan-5-yl) pyrimidin-2(1H)-one, reference compound] | – | – | Neither 3TC nor NHC had antiviral activity against MNV | > 100 µM | > 100 µM | did not show antiviral activity | – | – | – | No reduction of MNV titre was observed | – | –
CC(C)[C@H](N)C(=O)O[C@@H]1[C@@H](CO)O[C@@H](n2ccc(N)nc2=O)[C@]1(C)O [NM-283] | – | – | – | – | – | – | – | – | – | – | – | Clinical outcome in HCV trials, in words (HCV infections): found to have gastrointestinal problems
C[C@@]1(F)[C@H](O)[C@@H](CO)O[C@H]1n1ccc(N)nc1=O [2′-F-2′-C-MeC, 4-amino-1-((2R, 3R, 4R, 5R)-3-fluoro-4-hydroxy-5-(hydroxymethyl)-3-methyltetrahydrofuran-2-yl) pyrimidin-2(1H)-one] | 12.7 ± 2.9 µM | >7.9 | dose-dependent antiviral activity only at 12 h post-treatment | > 100 µM | > 100 µM | dose- and time-dependent reduction of NV RNA levels | > 31.4 | 3200 ± 1500 nM | 49 ± 2.9 µM | reduced MNV titres, but only at 12 h post-treatment | 91.2 ± 2.8 µM | Activity against BVDV replication, in words [6]: not BVDV replication; Activity against HCV replication, in words (HCV): inhibits HCV; IC50 (MNV (MNV-1.CW3) [7]; Norwalk virus, RAW264.7, 12 h, read-out: IC50, MNV infectivity): 33.9 ± 1.1 µM
C[C@@]1(O)[C@H](O)[C@@H](CO)O[C@H]1n1ccc(N)nc1=O [2′-C-MeC, 4-amino-1-((2R, 3R, 4R, 5R)-3,4 dihydroxy-5-(hydroxymethyl)-3-methyltetrahydrofuran-2-yl) pyrimidin-2(1H)-one] | 6.9 ± 3.9 µM | >14.6 | dose- and time-dependent reduction of MNV RNA levels | > 100 µM | > 100 µM | dose- and time-dependent reduction of NV RNA levels | > 77.5 | 1300 nM | 8.9 ± 1.5 µM | MNV titres were significantly reduced | 25.4 ± 3.6 µM | Reduction of MNV RNA levels (MNV (MNV-1.CW3) [1]; 0.1 μM, 72 h of exposure): 2 log10; Inhibition of MNV replication (RNA) (MNV (MNV-1.CW3) [1]; 100 μM, 24 h post-treatment): 3 log10; EC90 (MNV (MNV-1.CW3) [1]; RAW264.7, 24 h, read-out: EC90, MNV RNA (1 log10 reduction) (converted)): 25.6 ± 3.7 µM; Reduction in NV RNA (NV replicon (HG23 cells); 72 h post-treatment): 1.2 log10; Reduction in NV RNA (NV replicon (HG23 cells); 96 h post-treatment): 3.6 log10; Reduction of NV RNA level (NV replicon (HG23 cells); 0.1 and 1 μM, after 96 h): 2.5 log10; EC50 (NV replicon (HG23 cells); [9]): 1290 ± 800 nM; NPT II expression, % of untreated cells ([5]; 1 μM): 83%; NPT II expression, % of untreated cells ([5]; 10 μM): 13%; NPT II expression, % of untreated cells ([5]; 100 μM): 2%; IC50 [5]: 2.77 ± 1.4 µM; EC50 ([6]; read-out: EC50 against BVDV, range given for HCV and BVDV together): 2 to 7 µM; EC50 (HCV; read-out: EC50 against HCV, range given for HCV and BVDV together): 2 to 7 µM; inhibition at 100 µM (MNV (MNV-1.CW3) [7]; Norwalk virus, RAW264.7, 24 h, read-out: Inhibition of MNV replication (titre)): 99%

— PMC7751060 (Antiviral therapy, 2012)
